Data taken from US20230138851A1, “NOVEL ALKYNE DERIVATIVES” (CARNA BIOSCIENCES, INC., priority 2020, published 2023).

Experiments:
Assay type in all cases: biochemical
DYRK1A = target: T1, DYRK1A (Homo sapiens, UniProt Q13627); assay: Inhibition test on activity of DYRK family, mobility shift assay (MSA), DYRK1A; settings: ATP 100 μM, FITC-labeled DYRKtide peptide substrate, room temperature 1 hour
T1 construct: purchased Carna Biosciences, Inc. 04-130
Procedure, shortened: (§1)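 FITC-DYRKtide phosphorylation in 20 mM HEPES pH 7.5 with MgCl2; ATP in the substrate mix was 100 μM (DYRK1A), 200 μM (DYRK1B), 40 μM (DYRK2) or 20 μM (DYRK3). Reactions ran 1 h at room temperature; inhibition from P/(P+S) versus blank and DMSO control, IC50 by regression on log concentration.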

DYRK1B = target: T2, DYRK1B (Homo sapiens, UniProt Q9Y463); assay: Inhibition test on activity of DYRK family, mobility shift assay (MSA), DYRK1B; set-up: Inhibitory Activity 1b (IC50 against DYRK1B): scale not given here; settings: ATP 200 μM, FITC-labeled DYRKtide peptide substrate, room temperature 1 hour
T2 construct: purchased Carna Biosciences, Inc. 04-131
Protocol: [Inhibition Test on Activity of DYRK Family (DYRK1A, DYRK1B, DYRK2, and […])]
(Method for Measuring Kinase Activity)
The kinase activity was measured by mobility shift assay (MSA) method using QuickScout Screening Assist™ MSA (commercially available kit manufactured by Carna Biosciences, Inc.). The substrate of the kinase reaction used was an FITC-labeled DYRKtide peptide included in the kit. An assay buffer [20 mM HEPES, 0.01% Triton X-100™, 2 mM dithiothreitol, pH 7.5] was used to create a substrate mixture solution with a substrate (4 μM), MgCl2 (20 mM), and ATP (DYRK1A: 100 μM; DYRK1B: 200 μM; DYRK2: 40 μM; and DYRK3: 20 μM). In addition, kinases (DYRK1A: manufactured by Carna Biosciences, Inc., Cat. No. 04-130; DYRK1B: manufactured by Carna Biosciences, Inc., Cat. No. 04-131; DYRK2; manufactured by Carna Biosciences, Inc., Cat. No. 04-132; and DYRK3; manufactured by Carna Biosciences, Inc., Cat. No. 04-133) were diluted with the assay buffer to prepare enzyme solutions (DYRK1A: 0.2 ng/μL; DYRK1B: 0.08 ng/μL; DYRK2: 0.04 ng/μL; and DYRK3: 0.25 ng/μL). The 10 mM solution of the test compound in DMSO was further diluted with DMSO to 10 levels of the concentration (0.00003 mM, 0.0001 mM, 0.0003 mM, 0.001 mM, 0.003 mM, 0.01 mM, 0.03 mM, 0.1 mM, 0.3 mM, and 1 mM), each of which was subjected to 25-fold dilution with the assay buffer to obtain a drug solution (4% DMSO solution). 5 μL of the drug solution or a control solution (4% DMSO-assay buffer), 5 μL of the substrate mixture solution, and 10 μL of the enzyme solution were mixed in the wells of a polypropylene 384-well plate and allowed to react at room temperature for 1 hour, and then the reaction was quenched by adding 60 μL of the termination buffer included in the kit. Subsequently, the quantities of the substrates (S) and the phosphorylated substrate (P) in the reaction solution were measured using LabChip EZ Reader II system (manufactured by Caliper Life Sciences) according to the protocol of the assay kit.
(Method for Evaluating Inhibitory Activity)
The heights of the peaks of the “substrate” and the “phosphorylated substrate” were expressed as S and P, respectively, and a blank containing the assay buffer instead of the enzyme solution was also measured.
The inhibition rate (%) of the test compound was calculated according to the following equation:
Inhibition rate (%)=(1−(C−A)/(B−A))×100
wherein, A, B, and C represent P/(P+S) of the blank well, P/(P+S) of the control solution well, and P/(P+S) of the compound-containing well, respectively.
The IC50 value was calculated via a regression analysis of the inhibition rate and the test compound concentration (logarithmic value).
The inhibiting activities of representative compounds of the present invention are shown against DYRK1A, DYRK1B, DYRK2, and DYRK3 in Tables 7 and 8. The kinase activity inhibitory effect was indicated with the mark *** at an IC50 value of less than 0.01 μM; the mark ** at 0.01 μM or more and less than 0.1 μM; the mark * at 0.1 μM or more and less than 1 μM; and the mark — at 1 μM or more (N.D. indicates not measured).

DYRK2 = target: T3, DYRK2 (Homo sapiens, UniProt Q92630); assay: Inhibition test on activity of DYRK family, mobility shift assay (MSA), DYRK2; settings: ATP 40 μM, FITC-labeled DYRKtide peptide substrate, room temperature 1 hour; for IC50: read-out: Inhibitory Activity 2 (IC50 against DYRK2)
T3 construct: purchased Carna Biosciences, Inc. 04-132
T3 sequence (Q92630 1-601): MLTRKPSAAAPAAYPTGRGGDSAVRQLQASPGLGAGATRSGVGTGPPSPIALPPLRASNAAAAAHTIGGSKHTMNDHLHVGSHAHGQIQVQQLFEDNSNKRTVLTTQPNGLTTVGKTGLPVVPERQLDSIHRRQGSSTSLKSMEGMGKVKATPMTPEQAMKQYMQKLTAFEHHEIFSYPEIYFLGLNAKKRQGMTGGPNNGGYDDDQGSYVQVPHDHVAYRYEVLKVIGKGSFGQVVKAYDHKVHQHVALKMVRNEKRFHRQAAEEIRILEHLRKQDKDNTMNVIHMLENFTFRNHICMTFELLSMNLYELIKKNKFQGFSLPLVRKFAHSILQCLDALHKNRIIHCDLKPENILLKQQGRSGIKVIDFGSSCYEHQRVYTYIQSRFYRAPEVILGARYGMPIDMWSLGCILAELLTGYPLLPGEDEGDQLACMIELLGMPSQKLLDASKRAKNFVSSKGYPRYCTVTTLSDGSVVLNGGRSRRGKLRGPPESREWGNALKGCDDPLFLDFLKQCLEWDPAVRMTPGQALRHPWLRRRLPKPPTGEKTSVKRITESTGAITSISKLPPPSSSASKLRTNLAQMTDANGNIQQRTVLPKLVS
Procedure, shortened: as §1

DYRK3 = target: T4, DYRK3 (Homo sapiens, UniProt O43781); assay: Inhibition test on activity of DYRK family, mobility shift assay (MSA), DYRK3; settings: ATP 20 μM, FITC-labeled DYRKtide peptide substrate, room temperature 1 hour; for IC50: read-out: Inhibitory Activity 3 (IC50 against DYRK3)
T4 construct: purchased Carna Biosciences, Inc. 04-133
T4 sequence (O43781 1-588): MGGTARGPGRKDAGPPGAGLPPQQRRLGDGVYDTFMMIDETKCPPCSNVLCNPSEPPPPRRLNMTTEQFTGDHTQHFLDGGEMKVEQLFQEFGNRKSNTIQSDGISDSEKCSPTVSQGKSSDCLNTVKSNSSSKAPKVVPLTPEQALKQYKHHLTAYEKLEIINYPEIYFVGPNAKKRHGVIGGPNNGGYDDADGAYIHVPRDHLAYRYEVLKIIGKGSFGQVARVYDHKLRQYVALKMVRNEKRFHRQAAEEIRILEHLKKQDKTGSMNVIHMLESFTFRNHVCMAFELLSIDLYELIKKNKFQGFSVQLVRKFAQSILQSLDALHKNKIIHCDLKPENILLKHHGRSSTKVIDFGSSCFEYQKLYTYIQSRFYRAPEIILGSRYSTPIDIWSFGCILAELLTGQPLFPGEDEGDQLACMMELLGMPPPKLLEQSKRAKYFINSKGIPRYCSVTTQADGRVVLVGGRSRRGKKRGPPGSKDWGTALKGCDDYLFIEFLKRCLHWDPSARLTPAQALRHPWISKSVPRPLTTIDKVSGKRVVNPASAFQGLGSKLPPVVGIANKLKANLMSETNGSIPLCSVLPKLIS
Procedure, shortened: as §1

T2 sequence (Q9Y463 whole entry): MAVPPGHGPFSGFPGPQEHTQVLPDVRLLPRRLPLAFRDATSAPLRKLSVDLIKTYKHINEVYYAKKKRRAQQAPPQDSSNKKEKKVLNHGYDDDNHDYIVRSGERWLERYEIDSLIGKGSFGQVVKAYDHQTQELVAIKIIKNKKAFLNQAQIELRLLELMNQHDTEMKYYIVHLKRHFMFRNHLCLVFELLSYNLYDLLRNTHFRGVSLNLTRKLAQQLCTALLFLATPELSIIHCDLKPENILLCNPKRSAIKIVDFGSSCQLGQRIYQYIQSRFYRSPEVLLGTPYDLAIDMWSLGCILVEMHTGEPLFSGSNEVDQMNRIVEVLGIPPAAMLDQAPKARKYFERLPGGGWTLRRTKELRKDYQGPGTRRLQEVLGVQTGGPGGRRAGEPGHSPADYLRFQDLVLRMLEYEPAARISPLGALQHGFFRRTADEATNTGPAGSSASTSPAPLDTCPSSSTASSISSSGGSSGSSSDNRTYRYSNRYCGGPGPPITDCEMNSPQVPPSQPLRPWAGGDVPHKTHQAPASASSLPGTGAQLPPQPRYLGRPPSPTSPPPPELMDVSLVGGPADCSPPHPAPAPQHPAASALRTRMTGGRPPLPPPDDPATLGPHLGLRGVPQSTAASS

Inhibitory Activity 1a (IC50 against DYRK1A) (DYRK1A) | Inhibitory Activity 1b (IC50 against DYRK1B) (DYRK1B) | IC50 (DYRK2) [nM] | Inhibitory Activity 3 (IC50 against DYRK3) (DYRK3) | IC50 (DYRK3) [nM] | Inhibitory Activity 2 (IC50 against DYRK2) (DYRK2) | Compound
* * * | * * * | 100 to 1000 | * * |  |  | CC#CC1CNC(=O)N1c1nc2c3c(ccc2s1)OCO3 (racemic) [Example 1, (RS)-1-([1,3]dioxolo[4′,5′:5,6]benzo[1,2-d]thiazol-7-yl)-5-(prop-1-yn-1-yl)imidazolidin-2-one]
* * * | * * * | 100 to 1000 | * * |  |  | CC#CC1CNC(=O)N1c1nc2c3c(ccc2s1)OCC3 (racemic) [Example 8, (RS)-1-(7,8-dihydrobenzofuro[4,5-d]thiazol-2-yl)-5-(prop-1-yn-1-yl)imidazolidin-2-one]
* * * | * * * | 100 to 1000 |  | 100 to 1000 |  | CC#CC1CNC(=O)N1c1nc2c(ccc3nccnc32)s1 (racemic) [Example 24, (RS)-5-(prop-1-yn-1-yl)-1-(thiazolo[4,5-f]quinoxalin-2-yl)imidazolidin-2-one]
* * * | * * * | 100 to 1000 |  | 100 to 1000 |  | CC#CC1CNC(=O)N1c1nc2c3c(ccc2s1)OCCN3C (racemic) [Example 25, (RS)-1-(9-methyl-8,9-dihydro-7H-thiazolo[4′,5′;3,4]benz[1,2-b][1,4]oxazin-2-yl)-5-(prop-1-yn-1-yl)imidazolidin-2-one]
* * * | * * * | 100 to 1000 | * * |  |  | CC#CC1CNC(=O)N1c1nc2c(ccc3ncn(C)c32)s1 (racemic) [Example 26, (RS)-1-(8-methyl-8H-imidazo[4′,5′:5,6]benz[1,2-d]thiazol-2-yl)-5-(prop-1-yn-1-yl)imidazolidin-2-one]
* ** | * * * | 100 to 1000 | * * |  |  | CC#CC1CNC(=O)N1c1nc2c(ccc3ncccc32)s1 (racemic) [Example 27, (RS)-5-(prop-1-yn-1-yl)-1-(thiazolo[4,5-f]quinolin-2-yl)imidazolidin-2-one]
* * * | * * * | ≥ 1000 |  | 100 to 1000 |  | CC#CC1CNC(=O)N1c1nc2c(ccc3nnn(C)c32)s1 (racemic) [Example 28, (RS)-1-(1-methyl-1H-thiazolo[4′,5′:3,4]benz[1,2-d][1,2,3]triazol-7-yl)-5-(prop-1-yn-1-yl)imidazolidin-2-one]
* * * | * * * | 100 to 1000 |  | 100 to 1000 |  | CC#CC1CNC(=O)N1c1nc2c(ccc3ncn(CCO)c32)s1 (racemic) [Example 31, (RS)-1-[8-(2-hydroxyethyl)-8H-imidazo[4′,5′:5,6]benz[1,2-d]thiazol-2-yl]-5-(prop-1-yn-1-yl)imidazolidin-2-one]
* * * | * * * |  | * * |  | * * | CC#CC1CNC(=O)N1c1nc2c(ccc3ncn(C4CCOCC4)c32)s1 (racemic) [Example 32, (RS)-5-(prop-1-yn-1-yl)-1-[8-(tetrahydro-2H-pyran-4-yl)-8H-imidazo[4′,5′:5,6]benz [1,2-d]thiazol-2-yl]imidazolidin-2-one]
* * * |  | 100 to 1000 |  | 100 to 1000 |  | CC#C[C@@H]1[C@H]([C@H](C)O)NC(=O)N1c1nc2c3c(ccc2s1)OCC3 [Example 84, (4R,5R)-1-(7,8-dihydrobenzofuro[4,5-d]thiazol-2-yl)-4-((S)-1-hydroxyethyl)-5-(prop-1-yn-1-yl)imidazolidin-2-one]
